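Test compounds were applied to cells in 96-well plates for 48 hours at 5 doses. GI50 marks 50% less growth.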 Activity calls are given as the source filed them. Cut-off read from the data, not from the text of the source: active = GI50 up to about 1.1 µM and inactive = higher.

This is an account of results in ChEMBL document CHEMBL1201862, “PubChem BioAssay data set” (2004).

Test systems include HCC 2998; UO-31; IGROV-1; OVCAR-8; NCI-H23; SR; NCI/ADR-RES; TK-10; OVCAR-5; OVCAR-4; A498; HCT-15; HCT-116; HOP-62; SK-OV-3; SK-MEL-2; Malme-3M; RXF 393; RPMI-8226; M14.
Common to all, as to assay: growth of human tumour cells (NCI), 48 h

Regarding `C[N+](C)(N)c1nc(N)c(C#N)c(C#N)c1C#N`, the GI50 in the test with HCC 2998, in the test on UO-31, in the test with IGROV-1, in the test on OVCAR-8, in the test on NCI-H23 and with SR was > 10 µM (inactive) in each case. For the same molecule, the GI50 with NCI/ADR-RES is > 10 µM (inactive); with TK-10, > 10 µM (inactive); with OVCAR-5 it was > 10 µM (inactive); in the test on OVCAR-4 it was > 10 µM (inactive); in the test on A498 it was > 10 µM (inactive); with HCT-15, more than 10 µM. In addition, the GI50 with HCT-116, in the test on HOP-62, with SK-OV-3, with SK-MEL-2, in the test with Malme-3M and with RXF 393 was > 10 µM (inactive) each time. For the same molecule, the GI50 in the test with RPMI-8226 and in the test on M14 was > 10 µM (inactive) each time.

`Cc1ccc(C(=O)N/N=C(\N=N\c2cccc([N+](=O)[O-])c2)c2ccc(N(CCC#N)CCC#N)cc2C)cc1`: the GI50 was 30.9 µM (inactive) with HCC 2998; 39.5 µM (inactive) in the test with UO-31; 19.2 µM (inactive) in the test on IGROV-1; 23.2 µM (inactive) in the test with OVCAR-8; 20.5 µM (inactive) in the test on NCI-H23; 21.6 µM (inactive) with SR. In addition, the GI50 was 34.8 µM (inactive) in the test on NCI/ADR-RES; 45.1 µM (inactive) in the test on TK-10; 59.4 µM (inactive) with OVCAR-5; 23.7 µM (inactive) with OVCAR-4; 25.8 µM (inactive) in the test with A498; 30.8 µM in the test with HCT-15. In addition, the GI50 with HCT-116 is 28.4 µM (inactive); in the test with HOP-62, 25.4 µM (inactive); in the test with SK-OV-3, 36.8 µM (inactive); in the test with SK-MEL-2, 26.9 µM (inactive); in the test on Malme-3M it was 4.12 µM (inactive); in the test with RXF 393, 8.75 µM (inactive). Besides, the GI50 was 13 µM (inactive) in the test on RPMI-8226 and 33.4 µM (inactive) with M14.

In the case of `COc1cc(/C=C/C(=O)Oc2ccc(NC(C)=O)cc2)ccc1C(=O)OCc1ccccc1`, the GI50 is > 100 µM (inactive) with HCC 2998; > 100 µM (inactive) in the test on UO-31; 67.5 µM (inactive) with IGROV-1; > 88.9 µM (inactive) in the test on OVCAR-8; > 89.9 µM (inactive) in the test with NCI-H23; > 100 µM (inactive) with SR. Moreover, the GI50 in the test on NCI/ADR-RES was > 100 µM (inactive); in the test on TK-10 it was > 95.9 µM (inactive); with OVCAR-5, > 100 µM (inactive); in the test on OVCAR-4, > 96.4 µM (inactive); with A498, 60.3 µM (inactive); in the test on HCT-15, more than 100 µM. Further, the GI50 with HCT-116 was > 100 µM (inactive); in the test on HOP-62, 53.8 µM (inactive); in the test on SK-OV-3, 48.4 µM (inactive); with SK-MEL-2, 53.1 µM (inactive); with Malme-3M, > 93.5 µM (inactive); with RXF 393, 28.8 µM (inactive). In addition, the GI50 with RPMI-8226 and in the test with M14 was > 100 µM (inactive) throughout.

On to `CC(C)=CCC/C(C)=C/CC/C(C)=C/CC/C(=C/CC/C(C)=C\CC/C(C)=C/CC/C(C)=C/CC/C(C)=C/Cc1cc(O)ccc1O)CO`, for which the GI50 was 9.93 µM (inactive) in the test on HCC 2998; 7.98 µM (inactive) in the test with UO-31; 2.86 µM (inactive) in the test on IGROV-1; 3.75 µM (inactive) with OVCAR-8; 0.979 µM (active) in the test on NCI-H23; 3.26 µM (inactive) with SR. The GI50 in the test with NCI/ADR-RES is 4.51 µM (inactive); with TK-10, 6.61 µM (inactive); in the test on OVCAR-5 it was 25.4 µM (inactive); in the test with OVCAR-4 it was 2.51 µM (inactive); with A498, 5.33 µM (inactive); in the test with HCT-15, 7.11 µM. Besides, the GI50 in the test with HCT-116 was 2.84 µM (inactive); in the test on HOP-62 it was 11.3 µM (inactive); in the test on SK-OV-3 it was 10.9 µM (inactive); in the test with SK-MEL-2, 3.32 µM (inactive); in the test with Malme-3M, 2.7 µM (inactive); in the test with RXF 393, 0.483 µM (active). The GI50 with RPMI-8226 is 1.82 µM (inactive); in the test on M14 it was 0.681 µM (active).
